Source: patent US4319028A, “7-(2-(Substituted benzoyl)amino)acetamido)cephalosporins” (Eli Lilly and Company, priority 1976, dated 1982)
In brackets after ≈: the same amount, converted by molar mass. Read-outs that look alike come from different tables or passages of the source.

Columns and labels:
Serratia marcescens = test: Antibiotic activity (MIC), Gradient Plate in vitro method, Serratia marcescens; assay type: cell-based; settings: read-out: Minimum Inhibitory Concentration
Description: (§1) The antibiotic activity of the cephalosporin compounds of the present invention is illustrated by the data presented in Table I for representative compounds. The values in the table are the minimum inhibitory concentrations (MIC) for the test compounds against the indicated microorganisms. The MIC values were obtained in the Gradient Plate in vitro method for determining antibiotic activity.

Escherichia coli = test: Antibiotic activity (MIC), Gradient Plate in vitro method, Escherichia coli; assay type: cell-based; settings: read-out: Minimum Inhibitory Concentration
Description: (§2) The values in the table are the minimum inhibitory concentrations (MIC) for the test compounds against the indicated microorganisms. The MIC values were obtained in the Gradient Plate in vitro method for determining antibiotic activity.

Pseudomonas Aeruginosa = test: Antibiotic activity (MIC), Gradient Plate in vitro method, Pseudomonas Aeruginosa; assay type: cell-based; settings: read-out: Minimum Inhibitory Concentration
Description: as §2

Salmonella heidelberg = test: Antibiotic activity (MIC), Gradient Plate in vitro method, Salmonella heidelberg; assay type: cell-based; settings: Salmonella enterica, read-out: Minimum Inhibitory Concentration
Description: as §2

[1] = test system: V32 (penicillin resistant Staphylococcus); test: Antibiotic activity (MIC), Gradient Plate in vitro method, V32; assay type: cell-based; settings: read-out: Minimum Inhibitory Concentration
Description: as §1
(§3) ^1 Test organisms V41, V32, and V84 are penicillin resistant

[2] = test system: V84 (penicillin resistant Staphylococcus); test: Antibiotic activity (MIC), Gradient Plate in vitro method, V84; assay type: cell-based; settings: read-out: Minimum Inhibitory Concentration
Description: as §1, §3

Aerobacter Aerogenes = test: Antibiotic activity (MIC), Gradient Plate in vitro method, Aerobacter Aerogenes; assay type: cell-based; settings: Klebsiella aerogenes, read-out: Minimum Inhibitory Concentration
Description: as §2

[3] = test system: X466 (methicillin resistant Staphylococcus); test: Antibiotic activity (MIC), Gradient Plate in vitro method, X466; assay type: cell-based; settings: read-out: Minimum Inhibitory Concentration
Description: The antibiotic activity of the cephalosporin compounds of the present invention is illustrated by the data presented in Table I for representative compounds. The values in the table are the minimum inhibitory concentrations (MIC) for the test compounds against the indicated microorganisms. The MIC values were obtained in the Gradient Plate in vitro method for determining antibiotic activity. […]

Titration (pKa) = assay type: physicochemical; settings: 66% dmf-34% h2o, titration (66% DMF-34% H2O)
Shigella sp. = test: Antibiotic activity (MIC), Gradient Plate in vitro method, Shigella sp.; assay type: cell-based; settings: read-out: Minimum Inhibitory Concentration
Description: as §1

[4] = test system: V41 (penicillin resistant Staphylococcus); test: Antibiotic activity (MIC), Gradient Plate in vitro method, V41; assay type: cell-based; settings: Gradient Plate in vitro; V41, penicillin resistant Staphylococcus; read-out: Minimum Inhibitory Concentration
Description: as §1, §3

Klebsiella pneumoniae = test: Antibiotic activity (MIC), Gradient Plate in vitro method, Klebsiella pneumoniae; assay type: cell-based; settings: read-out: Minimum Inhibitory Concentration
Description: as §2

[5] = Gradient Plate in vitro, V32, penicillin resistant Staphylococcus
[6] = Gradient Plate in vitro, V84, penicillin resistant Staphylococcus
[7] = first pKa, read-out: pKa (first value)
[8] = second pKa, read-out: pKa (second value)

Compound | MIC (Serratia marcescens) [µg/mL] | MIC (Escherichia coli) [µg/mL] | MIC (Pseudomonas Aeruginosa) [µg/mL] | MIC (Salmonella heidelberg) [µg/mL] | MIC [1, 5] [µg/mL] | MIC [2, 6] [µg/mL] | MIC (Aerobacter Aerogenes) [µg/mL] | MIC [3] [µg/mL] | pKa (Titration (pKa); [7]) | pKa (Titration (pKa); [8]) | MIC (Shigella sp.) [µg/mL] | MIC [4] [µg/mL] | MIC (Klebsiella pneumoniae) [µg/mL] | MIC ([1]; Staphylococcus) [µg/mL] | MIC ([2]; Staphylococcus) [µg/mL]
Cn1nnnc1SCC1=C(C(=O)O)N2C(=O)C(NC(=O)[C@H](NC(=O)c3cccc(O)c3O)c3ccccc3)C2SC1 (stereo partly drawn) [Example 1, 7-[D-[2-Phenyl-2-[(2,3-dihydroxybenzoyl)amino]acetyl]amino]-3-[[(1-methyltetrazol-5-yl)thio]methyl]-3-cephem-4-carboxylic acid] | 16.4 (≈ 27.4 µM) | 14.8 (≈ 24.8 µM) | 13.8 (≈ 23.1 µM) | 0.5 (≈ 0.837 µM) | 132 (≈ 221 µM) | 10.3 (≈ 17.2 µM) | 5.4 (≈ 9.04 µM) | 136 (≈ 228 µM) | 5.31 | 8.73 | 3.7 (≈ 6.19 µM) | 15.1 (≈ 25.3 µM) | 10 (≈ 16.7 µM) |  | 
Cn1nnnc1SCC1=C(C(=O)O)N2C(=O)C(NC(=O)[C@H](NC(=O)c3ccc(O)c(O)c3)c3ccc(O)cc3)C2SC1 (stereo partly drawn) [Example 2, 7-[D-[2-(4-Hydroxyphenyl)-2-[(3,4-dihydroxybenzoyl)amino]acetyl]amino]-3-[[(1-methyltetrazol-5-yl)thio]methyl]-3-cephem-4-carboxylic acid] | > 200 | 8.5 (≈ 13.9 µM) | 4.9 (≈ 7.99 µM) | 0.2 (≈ 0.326 µM) | 3.8 (≈ 6.19 µM) | 3.2 (≈ 5.21 µM) | 4 (≈ 6.52 µM) | 8.4 (≈ 13.7 µM) | 4.1 | 10.9 | 1 (≈ 1.63 µM) | 3.6 (≈ 5.87 µM) | 0.8 (≈ 1.3 µM) |  | 
Cn1nnnc1SCC1=C(C(=O)O)N2C(=O)C(NC(=O)[C@H](NC(=O)c3cccc(O)c3O)c3ccc(O)cc3)C2SC1 (stereo partly drawn) [Example 3, 7-[D-[2-(4-Hydroxyphenyl)-2-[(2,3-dihydroxybenzoyl)amino]acetyl]amino]-3-[[(1-methyltetrazol-5-yl)thio]methyl]-3-cephem-4-carboxylic acid] | 80 (≈ 130 µM) | 13.2 (≈ 21.5 µM) | 5.3 (≈ 8.64 µM) | 1 (≈ 1.63 µM) | 23 (≈ 37.5 µM) | 22 (≈ 35.9 µM) | 6.6 (≈ 10.8 µM) | 130 (≈ 212 µM) | 5.02 | 8.83 | 7 (≈ 11.4 µM) | 23 (≈ 37.5 µM) | 4.1 (≈ 6.68 µM) |  | 
Cn1nnnc1SCC1=C(C(=O)O)N2C(=O)C(NC(=O)[C@H](NC(=O)c3ccccc3O)c3ccc(O)cc3)C2SC1 (stereo partly drawn) [Example 4, 7-[D-[2-(4-Hydroxyphenyl)-2-[(2-hydroxybenzoyl)amino]acetyl]amino]-3-[[(1-methyltetrazol-5-yl)thio]methyl]-3-cephem-4-carboxylic acid] | > 200 | 60 (≈ 100 µM) | 104 (≈ 174 µM) | 32.5 (≈ 54.4 µM) |  | 2.2 (≈ 3.68 µM) | 49 (≈ 82 µM) | 41 (≈ 68.6 µM) | 5.09 | 10 | 33 (≈ 55.2 µM) | 4.6 (≈ 7.7 µM) | 29 (≈ 48.5 µM) | 4 (≈ 6.69 µM) | 
Cc1nnc(SCC2=C(C(=O)O)N3C(=O)C(NC(=O)[C@H](NC(=O)c4c(O)cccc4O)c4ccc(O)cc4)C3SC2)s1 (stereo partly drawn) [Example 5, 7-[D-[2-(4-Hydroxyphenyl)-2-[(2,6-dihydroxybenzoyl)-amino]acetyl]amino]-3-[[(5-methyl-1,3,4-thiadiazol-2-yl)thio]methyl]-3-cephem-4-carboxylic acid] | > 200 | 96 (≈ 152 µM) | 27.5 (≈ 43.7 µM) | 82 (≈ 130 µM) | 4.6 (≈ 7.31 µM) | 1.3 (≈ 2.06 µM) | 110 (≈ 175 µM) | 60 (≈ 95.3 µM) | 5.2 | 9.13 | 48 (≈ 76.2 µM) | 3.7 (≈ 5.88 µM) | 29.5 (≈ 46.8 µM) |  | 
Cc1nnc(SCC2=C(C(=O)O)N3C(=O)C(NC(=O)[C@H](NC(=O)c4cc(O)c(O)c(O)c4)c4ccc(O)cc4)C3SC2)s1 (stereo partly drawn) [Example 6, 7-[D-[2-(4-Hydroxyphenyl)-2-[(3,4,5-trihydroxybenzoyl)-amino]acetyl]amino]-3-[[(5-methyl-1,3,4-thiadiazol-2-yl)thio]methyl]-3-cephem-4-carboxylic acid] | > 200 | 21.7 (≈ 33.6 µM) | 6 (≈ 9.29 µM) | 0.7 (≈ 1.08 µM) | 8.6 (≈ 13.3 µM) | 3.2 (≈ 4.96 µM) | 8.4 (≈ 13 µM) | 130 (≈ 201 µM) | 4.88 |  | 5.8 (≈ 8.98 µM) | 6.6 (≈ 10.2 µM) | 3.9 (≈ 6.04 µM) |  | 
Cc1nnc(SCC2=C(C(=O)O)N3C(=O)C(NC(=O)[C@H](NC(=O)c4ccc(O)c(O)c4O)c4ccc(O)cc4)C3SC2)s1 (stereo partly drawn) [Example 7, 7-[D-[2-(4-Hydroxyphenyl)-2-[(2,3,4-trihydroxybenzoyl)-amino]-acetyl]amino]-3-[[(5-methyl-1,3,4-thiadiazol-2-yl)thio]methyl]-3-cephem-4-carboxylic acid] | > 200 | 100 (≈ 155 µM) | 25 (≈ 38.7 µM) | 16 (≈ 24.8 µM) | 60 (≈ 92.9 µM) | 25 (≈ 38.7 µM) | 57.5 (≈ 89.1 µM) | > 200 |  |  | 50 (≈ 77.4 µM) | 60 (≈ 92.9 µM) | 52.5 (≈ 81.3 µM) |  | 
Cc1nnc(SCC2=C(C(=O)O)N3C(=O)C(NC(=O)[C@H](NC(=O)c4c(O)cc(O)cc4O)c4ccc(O)cc4)C3SC2)s1 (stereo partly drawn) [Example 8, 7-[D-[2-(4-Hydroxyphenyl)-2-[(2,4,6-trihydroxybenzoyl)-amino]acetyl]amino]-3-[[(5-methyl-1,3,4-thiadiazol-2-yl)thio]methyl]-3-cephem-4-carboxylic acid] | > 200 | 120 (≈ 186 µM) | 100 (≈ 155 µM) | 110 (≈ 170 µM) |  |  | 140 (≈ 217 µM) | 120 (≈ 186 µM) |  |  | 100 (≈ 155 µM) | 10.5 (≈ 16.3 µM) | 110 (≈ 170 µM) | 10 (≈ 15.5 µM) | 10 (≈ 15.5 µM)
Cn1c(SCC2=C(C(=O)O)N3C(=O)C(NC(=O)[C@H](NC(=O)c4cccc(O)c4O)c4ccc(O)cc4)C3SC2)nnc(O)c1=O (stereo partly drawn) [Example 9, 7-[D-[2-(4-Hydroxyphenyl)-2-[(2,3-dihydroxybenzoyl)-amino]acetyl]amino]-3-[[(4,5-dihydro-6-hydroxy-4-methyl-5-oxo-1,2,4-triazin-3-yl)thio]methyl]-3-cephem-4-carboxylic acid] | > 200 | 22.5 (≈ 34.3 µM) | 124 (≈ 189 µM) | 1 (≈ 1.52 µM) | 14 (≈ 21.3 µM) | 11.6 (≈ 17.7 µM) | 11 (≈ 16.8 µM) | > 200 | 4.99 | 8.89 | 8 (≈ 12.2 µM) | 16.2 (≈ 24.7 µM) | 3.9 (≈ 5.94 µM) |  | 
Cc1nnc(SCC2=C(C(=O)O)N3C(=O)C(NC(=O)[C@H](NC(=O)c4ccc(N)c(N)c4)c4ccc(O)cc4)C3SC2)s1 (stereo partly drawn) [Example 13, 7-[D-[2-(4-Hydroxyphenyl)-2-[(3,4-diaminobenzoyl)amino]-acetyl]amino]-3-[[(5-methyl-1,3,4-thiadiazol-2-yl)-thio]methyl]-3-cephem-4-carboxylic acid] | 116 (≈ 185 µM) | 19 (≈ 30.3 µM) | 31.5 (≈ 50.2 µM) | 14.6 (≈ 23.3 µM) | 5.2 (≈ 8.28 µM) |  | 33.2 (≈ 52.9 µM) | 126 (≈ 201 µM) |  |  | 13.8 (≈ 22 µM) | 4.6 (≈ 7.33 µM) | 14.8 (≈ 23.6 µM) |  | 5 (≈ 7.97 µM)
